Reference: US6555547B1, “Method for treating a patient with neoplasia by treatment with a vinca alkaloid derivative” (Cell Pathways, Inc., priority 2000, dated 2003)
Entries after “also recorded” stand apart in the source; their conditions may differ.

How the values were obtained:
[1] = Acute toxicity study in rats; format: in vivo
[2] = Toxicity study in dogs (capsules); format: in vivo
[3] = Seven-day dose-range finding study in rats; format: in vivo
[4] = system: LNCaP prostate tumor cell line; experiment: Histone-associated DNA fragmentation in prostate tumor cells; format: cell-based; conditions: 50 μM, up to 4 days, free base
Description: The androgen-sensitive prostate tumor cell line, LNCaP (from ATCC (Rockville, Md.)) was propagated under standard conditions using […] medium containing 5% fetal calve serum and 2 mM glutamine. Primary prostate epithelial cell cultures (PrEC) derived from normal prostate (from Clonetics Inc. (San Diego, Calif.)) were grown under the same conditions as the tumor cell line except a serum-free medium optimized for the growth of such cultures was used (Clonetics Inc). For the experiments, LNCaP or PrEC cells were seeded in 96 well plates at a density of 10,000 cells per well. […] After various drug treatment times (4, 24, 48, 72, or 99 hours) the cells were lysed and processed for measurement of histone-associated DNA as an indicator of apoptotic cell death (see, Piazza et al., Cancer Research 57: 2452-2459, 1997).

[5] = system: PrEC primary prostate epithelial cell cultures; experiment: Histone-associated DNA fragmentation in normal prostate epithelial cells; format: cell-based; conditions: 50 μM, up to 4 days
Description: The androgen-sensitive prostate tumor cell line, LNCaP (from ATCC (Rockville, Md.)) was propagated under standard conditions using […] medium containing 5% fetal calve serum and 2 mM glutamine. Primary prostate epithelial cell cultures (PrEC) derived from normal prostate (from Clonetics Inc. (San Diego, Calif.)) were grown under the same conditions as the tumor cell line except a serum-free medium optimized for the growth of such cultures was used (Clonetics Inc). For the experiments, LNCaP or PrEC cells were seeded in 96 well plates at a density of 10,000 cells per well. After 24 hours, the cells were treated with either vehicle (0.1% DMSO) or 50 μM Compound I (free base) solubilized in DMSO. After various drug treatment times (4, 24, 48, 72, or 99 hours) the cells were lysed and processed for measurement of histone-associated DNA as an indicator of apoptotic cell death (see, Piazza et al., Cancer Research 57: 2452-2459, 1997).

[6] = system: Calu-6 adenocarcinoma cell line; experiment: Cell growth, alone and in combination with vinca alkaloid; format: cell-based, human; conditions: for Lower concentration required on continuous exposure than 1-hour exposure for same effect: FIGS. 28-29, 32-33; for Effect when combined with vinca alkaloid: both cell lines (Calu-6, H460), 1-hour and continuous exposures
Description: (§1) Exisulind and Compound I were analyzed using two human lung cancer cell lines; H460, a large cell carcinoma with a doubling time of 16 hours, and Calu-6, an adenocarcinoma with a doubling time of 21 hours. Exisulind and Compound I were analyzed alone and in combination with the vinca alkaloid, Navelbine™ vinorelbine. The cytotoxic agents were administered for 1 hour, while exisulind and Compound I were administered for either 1 hour or given as a continuous exposure.
(§2) Cells were plated on day 0 and allowed to attach. On day 1, the cells were exposed to one of the cytotoxic agents dissolved in media pre-warmed to 37° C. and incubated at 37° C. for 1 hour. The cells were then washed twice and re-fed pre-warned media with or without either exisulind or Compound I and incubated for one hour at 37° C. After the one-hour incubation, the cells were washed twice, re-fed, and returned to the incubator; the continuous exposure cultures were not washed and re-fed. Appropriate controls were included for each condition. […] All data points were done in triplicate and the mean graphed as a percent of control growth.
(§3) Exisulind and Compound I were first dissolved in DMSO and brought to the desired concentrations by slowly adding warm media to the drug-DMSO solution to prevent precipitation.

[7] = system: H460 large cell carcinoma cell line; experiment: as above; format: cell-based, human
Description: as §1, §2, §3

[8] = rat, in vivo, 2000 mg/kg/day
[9] = in vivo
[10] = system: PKG activity in HCT116 colon cancer cells; experiment: PKG assay on lysates of drug-treated HCT116 cells; format: cell-based
From the text: To test the effect of cGMP-specific PDE inhibition on neoplasia containing the β-catenin mutation, HCT116 colon cancer cells were employed. HCT116 is known to contain the β-catenin mutation, but is known not to contain the APC mutation.
The same procedure is used to grow the HCT116 cells as is used in the SW480 procedure described above. In this experiment, only exisulind and controls were used.

[11] = system: β-catenin and PKG in SW480 cells; experiment: Western blot of β-catenin and PKG in SW480 cells; format: cell-based, human; conditions: SW480, 48 hours
Description: SW480 cells treated with exisulind as described previously are harvested from the microfuge tubes by rinsing once with ice-cold PBS. The cells are lysed by modified RIPA buffer for 15 minutes with agitation. The cell lysate is spun down in a cold room. The supernatants are transferred to fresh microcentrifuge tubes immediately after spinning. BioRad DC Protein Assay (Temecula, Calif.) is performed to determine the protein concentrations in samples. The samples are normalized for protein concentration, as described above.
50 μg of each sample is loaded onto a 10% SDS gel. SDS-PAGE is performed, and the proteins then are transferred to a nitrocellulose membrane. The blotted nitrocellulose membrane is blocked in freshly prepared TBST containing 5% nonfat dry milk for one hour at room temperature with constant agitation.
A goat-anti-PKG primary antibody is diluted to the recommended concentration/dilution in fresh TBST/5% nonfat dry milk. The nitrocellulose membrane is placed in the primary antibody solution and incubated one hour at room temperature with agitation. The nitrocellulose membrane is washed three times for ten minutes each with TBST. […]
This observation was made by culturing SW480 cells with either 200, 400 or 600 μM exisulind or vehicle (0.1% DMSO). […] Immuno-reactive protein can be detected by Western blot. […]

[12] = target: T1, cGMP binding sites of GST-cGB-PDE5 fusion protein (Homo sapiens, UniProt O76074); experiment: cGMP binding assay; conditions: 3H-cGMP 2 μM
T1 construct: made in house; host or cells: E. coli BL21 (DE3)

[13] = Side effects of exisulind in patients; format: in vivo
From the text: This effect is reversible, and liver enzymes return to normal levels when the administered dose of exisulind returns to the traditionally recommended level or when treatment is discontinued. The most serious side effects of vinca alkaloid derivatives, on the other hand, are myelosuppressions.

[14] = system: Peak B from SW480, HTB-26, and LnCAP; experiment: Peak B cGMP PDE activity from SW480, HTB-26 and LnCAP (FPLC); format: biochemical; conditions: 100 nM; Peak B from SW480, HTB-26, LnCAP
Description: The novel Peak B was also isolated from two other neoplastic cell lines, a breast cancer cell line, HTB-26, and a prostate cancer cell line, LnCAP, by a procedure similar to the one above used to isolate it from SW480. The protocol was modified in several respects. To provide even greater reproducibility to allow comparison of different cell lines, a Pharmacia AKTA FPLC was used to control sample loading and elution on an 18 mL DEAE TrisAcryl M column. SW840 was run by this same procedure multiple times to provide a reference of Peak B. 200-400 million cells of SW480 were used for the profiles. 70 million cells of LnCAP were used for a profile (see FIGS. 22 and 23), and in a separate experiment 32 million cells of HTB-26 were used for a profile (see FIGS. 20 and 21). After re-suspending cells in homogenization buffer, samples were manually homogenized. FPLC buffer A was 8 mM TRIS-acetate, 5 mM Mg acetate, 0.1 mM EDTA, pH 7.5 and buffer B was 8 mM TRIS-acetate, 5 mM Mg acetate, 0.1 mM EDTA, 1 M Na acetate, pH 7.5. Supernatants were loaded onto the column at 1 mL per minute, followed by a wash with 60 mL buffer A at 1 mL per minute. A gradient was run from 0-15% buffer B in 60 mL, 15-50% buffer B in 60 mL, and 50-100% buffer B in 16 mL. During the gradient 1.5 mL fractions were collected.

T1 sequence (O76074 46-539 limits assumed): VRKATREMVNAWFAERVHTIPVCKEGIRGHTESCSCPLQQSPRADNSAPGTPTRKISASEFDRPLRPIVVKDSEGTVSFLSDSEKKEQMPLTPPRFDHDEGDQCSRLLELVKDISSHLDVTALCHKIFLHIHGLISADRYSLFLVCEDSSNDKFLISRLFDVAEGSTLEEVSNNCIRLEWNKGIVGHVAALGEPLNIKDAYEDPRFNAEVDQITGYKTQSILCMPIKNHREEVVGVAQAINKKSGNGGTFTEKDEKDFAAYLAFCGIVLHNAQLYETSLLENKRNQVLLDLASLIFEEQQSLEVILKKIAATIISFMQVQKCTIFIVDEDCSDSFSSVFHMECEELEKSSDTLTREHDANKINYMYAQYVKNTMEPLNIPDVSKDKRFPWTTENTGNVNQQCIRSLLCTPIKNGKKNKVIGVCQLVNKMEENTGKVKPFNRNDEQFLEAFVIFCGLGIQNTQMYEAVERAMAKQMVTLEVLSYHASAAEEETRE

With CC1=C(CC(=O)NCc2ccccc2)c2cc(F)ccc2/C1=C\c1ccncc1.Cl [Compound I, (Z)-5-fluoro-2-methyl-(4-pyridylidene)-3-(N-benzyl)indenylacetamide hydrochloride] the “intraperitoneal LD50” value [1] was “greater than 1000 mg/kg”, the “oral LD50” value [1] was greater than 4000 mg/kg and the “Acute toxicity, single intraperitoneal dose” value ([1]; intraperitoneal, 1000 mg/kg) was “reduced body weight gain, with mesenteric adhesions seen in some animals”. The “Acute toxicity, single oral dose” value ([1]; oral, 4000 mg/kg) was “body weight gains were slightly reduced”, the “Acute toxicity, single oral doses” value ([1]; oral, up to and including 2000 mg/kg) was “no observable signs of toxicity” and the “oral LD50” value [2] was “greater than 1000 mg/kg”. For the same compound, the “Toxicity, single dose in capsules” value ([2]; 1000 mg/kg) was “no signs of toxicity”, the “Drug-related effects, single dose and seven consecutive doses” value ([2]; 1000 mg/kg/day) was “At no time in either dosing phase were any obvious signs of drug-related effects observed” and the Seven-day toxicity findings ([3]; 50 mg/kg/day) was “no observable signs of toxicity”. For the same compound, the Seven-day toxicity findings ([3]; 500 mg/kg/day) was “treatment-related effects were limited to an increase in absolute and relative liver weights in female rats”, the Seven-day toxicity findings ([3]; 2000 mg/kg/day) was “labored breathing and/or abnormal respiratory sounds, decreased weights gains and food consumption in male rats, and increased liver weights in female rats” and the “Seven-day hematology, blood chemistry, microscopic pathology” value ([3]; any dose level) was “No hematological or blood chemistry changes nor any microscopic pathology changes”. For the same compound, the “Histone-associated fragmented DNA” value [4] was “A significant increase in fragmented DNA was detected after 24 hours of treatment; also recorded: time-dependent increase in the amount of histone-associated fragmented DNA”, the “DNA fragmentation” value [5] was “did not affect DNA fragmentation for up to 4 days of treatment” and the “Strength in inhibiting cell growth relative to exisulind” value ([6]; Calu-6) was 80-100 fold. The “% of control growth” value ([6]; Calu-6, 1-hour exposure, 5 mcg/ml) was 47%, the “Lower concentration required on continuous exposure than 1-hour exposure for same effect” value [6] was 25 fold and the “Effect when combined with vinca alkaloid” value [6] was “additive cytotoxic effect”. For the same compound, the “Strength in inhibiting cell growth relative to exisulind” value [7] was 80-100 fold, the 28-day histopathological evaluation [8] was “traces of follicular cell hypertrophy, increased numbers of mitotic figures (suggestive of possible cell proliferation) in the thyroid gland and mild centrilobular hypertrophy in the liver” and the 28-day liver weights [8] was “statistically significant increase in liver weights”. The 28-day thyroid weights [8] was “statistically significant increases in thyroid weights” and the “Safety” value [9] was “safe in animal studies and in a single, escalating dose human study”.

For CC1=C(CC(=O)O)c2cc(F)ccc2/C1=C\c1ccc(S(C)(=O)=O)cc1 [Exisulind, 5-fluoro-2-methyl-1-(p-methylsulfonylbenzylidene)-3-indenylacetic acid], the “PKG activation relative to control” value [10] was “yielded PKG that was phosphorylated to a greater extent than the corresponding controls”, the “β-catenin and PKG levels by Western blot” value [11] was “causes the drop of β-catenin and the increase of PKG” and the “Competition with cGMP for binding of GST-cGB-PDE5” value [12] was “do not bind to the cGMP binding sites of PDE5”. The “Lower concentration required on continuous exposure than 1-hour exposure for same effect” value [6] was roughly 10 fold, the activity at 400 µg/mL ([6]; Homo sapiens, Calu-6, 1 h, Calu-6, 1-hour exposure, 400 μg/ml, read-out: % of control growth) was 54% and the “Effect when combined with vinca alkaloid” value [6] was “additive cytotoxic effect”. For the same compound, the “Side effects at recommended dose” value ([13]; 300-600 mg/day) was “no significant side effects” and the “Side effects above recommended dose” value ([13]; doses higher than the recommended therapeutic levels, reversible) was “can lead to elevated levels of liver enzymes”.

In the case of O=C(O)C1CCN(c2nc(NCc3ccc4c(c3)OCO4)c3cc(Cl)ccc3n2)CC1 [Compound E4021], the “Sensitivity of Peak B cGMP PDE activity” value [14] was “resistant” and the “Competition with cGMP for binding of GST-cGB-PDE5” value [12] was “do not bind to the cGMP binding sites of PDE5”.
